Source: PubChem BioAssay (NCI)
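Interpolation was linear, between the two tested concentrations surrounding the appropriate level; five concentrations were tested over 48 hours in 96-well plates. GI50 marks 50% less growth. TGI: concentration producing complete growth inhibition.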

Tests used:
Test in all cases: NCI tumour cell line growth inhibition, 48 h
SF-268 CNS = test system: SF-268 CNS
NCI-H522 lung = test system: NCI-H522 lung
K-562 leukemia = test system: K-562 leukemia
OVCAR-5 ovarian = test system: OVCAR-5 ovarian
CCRF-CEM leukemia = test system: CCRF-CEM leukemia
UACC-257 melanoma = test system: UACC-257 melanoma
SN12C renal = test system: SN12C renal
SF-539 CNS = test system: SF-539 CNS
A549 NSCLC = test system: A549 NSCLC
HCT-116 colon = test system: HCT-116 colon
IGROV1 ovarian = test system: IGROV1 ovarian
HCC-2998 colon = test system: HCC-2998 colon
M14 melanoma = test system: M14 melanoma
SW-620 colon = test system: SW-620 colon
CAKI-1 renal = test system: CAKI-1 renal
BT-549 breast = test system: BT-549 breast
RXF 393 renal = test system: RXF 393 renal
T-47D breast = test system: T-47D breast
COLO 205 colon = test system: COLO 205 colon
MDA-MB-231 breast = test system: MDA-MB-231 breast
SR leukemia = test system: SR leukemia
UO-31 renal = test system: UO-31 renal
OVCAR-4 ovarian = test system: OVCAR-4 ovarian
KM12 colon = test system: KM12 colon
U251 CNS = test system: U251 CNS
UACC-62 melanoma = test system: UACC-62 melanoma
ACHN renal = test system: ACHN renal
MCF7 breast = test system: MCF7 breast
SF-295 CNS = test system: SF-295 CNS
PC-3 prostate = test system: PC-3 prostate
HL-60(TB) leukemia = test system: HL-60(TB) leukemia
NCI/ADR-RES ovarian = test system: NCI/ADR-RES ovarian
HOP-92 NSCLC = test system: HOP-92 NSCLC
NCI-H23 lung = test system: NCI-H23 lung
SK-MEL-5 melanoma = test system: SK-MEL-5 melanoma
A498 renal = test system: A498 renal
HOP-62 NSCLC = test system: HOP-62 NSCLC
MDA-MB-435 = test system: MDA-MB-435
SK-MEL-28 melanoma = test system: SK-MEL-28 melanoma
MOLT-4 leukemia = test system: MOLT-4 leukemia
SNB-75 CNS = test system: SNB-75 CNS
DU-145 prostate = test system: DU-145 prostate
HCT-15 colon = test system: HCT-15 colon
HT29 colon = test system: HT29 colon
SNB-19 CNS = test system: SNB-19 CNS
786-0 renal = test system: 786-0 renal
OVCAR-3 ovarian = test system: OVCAR-3 ovarian
TK-10 renal = test system: TK-10 renal
LOX IMVI melanoma = test system: LOX IMVI melanoma
SK-MEL-2 melanoma = test system: SK-MEL-2 melanoma
SK-OV-3 ovarian = test system: SK-OV-3 ovarian
RPMI-8226 leukemia = test system: RPMI-8226 leukemia
NCI-H460 lung = test system: NCI-H460 lung
HS 578T breast = test system: HS 578T breast
MALME-3M melanoma = test system: MALME-3M melanoma
OVCAR-8 ovarian = test system: OVCAR-8 ovarian
NCI-H226 lung = test system: NCI-H226 lung

CC(C)(C)[Si](C)(C)OC1[C@@H](COC(=O)NC(=O)CCl)O[C@@H](n2cnc3c(N)ncnc32)[C@H]1O[Si](C)(C)C(C)(C)C (some centres undefined)
GI50 (SF-268 CNS): 1.93 µM | TGI (SF-268 CNS): 5.23 µM | GI50 (NCI-H522 lung): 0.122 µM | TGI (NCI-H522 lung): 0.312 µM | GI50 (K-562 leukemia): 1.36 µM | TGI (K-562 leukemia): 3.36 µM | GI50 (OVCAR-5 ovarian): 3.11 µM | TGI (OVCAR-5 ovarian): 9.55 µM | GI50 (CCRF-CEM leukemia): 0.232 µM | TGI (CCRF-CEM leukemia): 0.931 µM | GI50 (UACC-257 melanoma): 6.98 µM | TGI (UACC-257 melanoma): 13.8 µM | GI50 (SN12C renal): 1.17 µM | TGI (SN12C renal): 3.23 µM | GI50 (SF-539 CNS): 6.97 µM | TGI (SF-539 CNS): 13.6 µM | GI50 (A549 NSCLC): 4.94 µM | TGI (A549 NSCLC): 11.9 µM | GI50 (HCT-116 colon): 1.53 µM | TGI (HCT-116 colon): 5.15 µM | GI50 (IGROV1 ovarian): 0.783 µM | TGI (IGROV1 ovarian): 1.67 µM | GI50 (HCC-2998 colon): 5.44 µM | TGI (HCC-2998 colon): 12.6 µM | GI50 (M14 melanoma): 1.39 µM | TGI (M14 melanoma): 4.23 µM | GI50 (SW-620 colon): 1.73 µM | TGI (SW-620 colon): 6.54 µM | GI50 (CAKI-1 renal): 4.25 µM | TGI (CAKI-1 renal): 11.2 µM | GI50 (BT-549 breast): 0.922 µM | TGI (BT-549 breast): 1.85 µM | GI50 (RXF 393 renal): 2.33 µM | TGI (RXF 393 renal): 7.99 µM | GI50 (T-47D breast): 4.94 µM | TGI (T-47D breast): 11.1 µM | GI50 (COLO 205 colon): 1.9 µM | TGI (COLO 205 colon): 4.79 µM | GI50 (MDA-MB-231 breast): 1.12 µM | TGI (MDA-MB-231 breast): 2.76 µM | GI50 (SR leukemia): 0.357 µM | TGI (SR leukemia): 1.31 µM | GI50 (UO-31 renal): 2.3 µM | TGI (UO-31 renal): 5.88 µM | GI50 (OVCAR-4 ovarian): 3.89 µM | TGI (OVCAR-4 ovarian): 10.7 µM | GI50 (KM12 colon): 2.55 µM | TGI (KM12 colon): 6.48 µM | GI50 (U251 CNS): 2.84 µM | TGI (U251 CNS): 7.91 µM | GI50 (UACC-62 melanoma): 6.14 µM | TGI (UACC-62 melanoma): 12.7 µM | GI50 (ACHN renal): 1.38 µM | TGI (ACHN renal): 3.45 µM | GI50 (MCF7 breast): 2.26 µM | TGI (MCF7 breast): 9 µM | GI50 (SF-295 CNS): 7.52 µM | TGI (SF-295 CNS): 14.3 µM | GI50 (PC-3 prostate): 3.15 µM | TGI (PC-3 prostate): 9.79 µM | GI50 (HL-60(TB) leukemia): 4.52 µM | TGI (HL-60(TB) leukemia): 12.3 µM | GI50 (NCI/ADR-RES ovarian): 5.44 µM | TGI (NCI/ADR-RES ovarian): 12.2 µM | GI50 (HOP-92 NSCLC): 1.76 µM | TGI (HOP-92 NSCLC): 9.24 µM | GI50 (NCI-H23 lung): 1.02 µM | TGI (NCI-H23 lung): 2.32 µM | GI50 (SK-MEL-5 melanoma): 1.82 µM | TGI (SK-MEL-5 melanoma): 5.02 µM | GI50 (A498 renal): 6.58 µM | TGI (A498 renal): 13.1 µM | GI50 (HOP-62 NSCLC): 4.04 µM | TGI (HOP-62 NSCLC): 10.3 µM | GI50 (MDA-MB-435): 2.35 µM | TGI (MDA-MB-435): 8.89 µM | GI50 (SK-MEL-28 melanoma): 7.12 µM | TGI (SK-MEL-28 melanoma): 13.7 µM | GI50 (MOLT-4 leukemia): 1.01 µM | TGI (MOLT-4 leukemia): 2.22 µM | GI50 (SNB-75 CNS): 3.64 µM | TGI (SNB-75 CNS): 10.8 µM | GI50 (DU-145 prostate): 5.75 µM | TGI (DU-145 prostate): 12 µM | GI50 (HCT-15 colon): 1 µM | TGI (HCT-15 colon): 2.21 µM | GI50 (HT29 colon): 2.59 µM | TGI (HT29 colon): 8.53 µM | GI50 (SNB-19 CNS): 7.61 µM | TGI (SNB-19 CNS): 14.7 µM | GI50 (786-0 renal): 1.05 µM | TGI (786-0 renal): 2.33 µM | GI50 (OVCAR-3 ovarian): 2.66 µM | TGI (OVCAR-3 ovarian): 8.32 µM | GI50 (TK-10 renal): 9.14 µM | TGI (TK-10 renal): 16.1 µM | GI50 (LOX IMVI melanoma): 0.41 µM | TGI (LOX IMVI melanoma): 1.13 µM | GI50 (SK-MEL-2 melanoma): 6.72 µM | TGI (SK-MEL-2 melanoma): 13.8 µM | GI50 (SK-OV-3 ovarian): 2.92 µM | TGI (SK-OV-3 ovarian): 5.95 µM | GI50 (RPMI-8226 leukemia): 1.54 µM | TGI (RPMI-8226 leukemia): 5.63 µM | GI50 (NCI-H460 lung): 7.22 µM | TGI (NCI-H460 lung): 14.9 µM | GI50 (HS 578T breast): 7.62 µM | TGI (HS 578T breast): 19.3 µM | GI50 (MALME-3M melanoma): 0.984 µM | TGI (MALME-3M melanoma): 2.01 µM | GI50 (OVCAR-8 ovarian): 1.42 µM | TGI (OVCAR-8 ovarian): 4.45 µM | GI50 (NCI-H226 lung): 1.13 µM | TGI (NCI-H226 lung): 2.3 µM
